Results on one compound are retold here after publication PMC6279743, “A small molecule ApoE4-targeted therapeutic candidate that normalizes sirtuin 1 levels and improves cognition in an Alzheimer’s disease mouse model” (Scientific Reports, 2018).

Data set [1] relates to SirT2 levels in N2a-E4 cells. Description: SirT2 sandwich ELISA in N2a-E4 cells. In kind it is cell-based, murine. Conditions: A03 at 5 or 50 μM vs DMSO. For orientation: An ELISA detects its analyte on a solid surface through an enzyme-linked reagent.
Data set [2] is described as follows: Pharmacokinetics after oral delivery in mice. The settings on record: oral 10 mg/kg. In kind it is in vivo. On the procedure:
All in vivo experiments described were carried out in strict accordance with good animal practice according to NIH recommendations. All procedures for animal use were approved by the Animal Research Committee (ARC) at UCLA and under an approved ARC protocol. Pharmacokinetic (PK) analysis[68]–[70] consisted of oral delivery of compounds (10 mg/Kg) to individual mice followed by euthanasia at 1, 2, 4, 6, and 8 hours post-dose by ketamine/xylazine over-anesthesia, blood collection by cardiac puncture, and transcardial saline perfusion. Whole blood was centrifuged at 5000 rpm for 10 min. in a 5 °C centrifuge to isolate plasma and the plasma stored at −20 °C before analysis. Whole brains were collected, dissected down the midline, snap frozen on dry ice, and stored at −80 °C before analysis. The levels of the compounds in both plasma and brain tissue were determined by a quantitative LC/MS/MS methodology at Integrated Analytical Solutions (IAS, Berkeley, CA). Plasma samples were precipitated with an acetonitrile: methanol (1:1) cocktail containing an internal standard. Brain samples were homogenized directly in ethyl acetate by the liquid-liquid method. The resulting supernatant was evaporated to dryness and subjected to LC/MS/MS analysis. The Tmax, Cmax, brain-to-plasma ratios and brain levels were then calculated using PK Solutions software (SummitPK).

The nature of data set [3]: Pharmacokinetics after subcutaneous (SQ) injection in mice. The data set is classed as in vivo.
Data set [4] concerns APP cleavage products in E4FAD mice. Description: Second oral 56-day study, APP-derived cleavage products in hippocampus. Conditions: oral 56 days, vs vehicle. The data set is classed as in vivo. On the procedure: (§1) E4FAD mice were 10–12 mo and NTg mice 7–9 mo at the start of the study.
(§2) Mice were euthanized and blood/tissues collected 2 hrs after dosing on Day 56 by the method described above for PK. Hip and FrCx were collected for analysis of SirT1, sAPPα, and Aβ1-42 levels by AlphaLISA. For Aβ1-42 the Perkin Elmer kit AL276C was used. Protein concentrations were determined using the Bradford protein assay. The sAPPα and sAPPβ AlphaLISAs were similar to the SirT1 AlphaLISA (see Supplementary Fig. S3) but the former uses anti-sAPPα antibody AF1168 and 2B3-biotinylated antibodies and the latter an anti-sAPPβ antibody (IBL Cat. #18957) and an anti-N-terminal APP antibody (R&D Systems AF1168) instead of anti-SirT1 antibodies. Brain tissue and plasma were sent to IAS for A03 level analysis.

In the next data set the test system is E4FAD mice. Put plainly: Novel Object Recognition (NOR) in 56-day study. In kind it is in vivo. Conditions: total time with both objects, vs E4FAD Veh. On the procedure:
as §1
All mice underwent NOR testing the last week of dosing. Mice were acclimated to a 30 × 40 cm arena for 15 minutes 24 hrs before acquisition. Individual mice underwent acquisition by exposure to two identical objects for 10 min. and then were returned to the home cage overnight. For the probe, individual mice were returned to the arena wherein one of the objects had been changed. Mice were allowed to explore the objects for 10 minutes. Both the acquisition and probe were recorded on tripod-mounted video cameras. The number of discreet interactions with each object (nose within 1 cm of the object) and time spent with each object were scored by personnel blind to the treatment and genotype of the mice; scores were spot-checked by a second scorer. The discrimination index (DI) was calculated by subtracting time spent (or number of interactions) with the familiar object (TF) from time spent (or number of interactions) with the novel object (TN), and then dividing that value by the sum of those two values [DI = (TN − TF)/(TN + TF)][73].

The nature of data set [5]: Brain compound levels 2 hours after the last dose in efficacy studies. The data set is classed as in vivo, mice. On the procedure:
Mice were euthanized and blood/tissues collected 2 hrs after dosing on day 28 by the method described above for PK. Frontal and parietal cortices (FrCx and PtCx, respectively), as well as the remaining brain tissue, from individual mice were dissected, snap frozen on dry ice, and stored at −80 °C. Plasma samples and the brain tissue minus the FrCx and PtCx (the ‘rest’) from all compound-treated mice were sent to IAS for compound level analysis as described above.
Mice were euthanized and blood/tissues collected 2 hrs after dosing on Day 25 by the method described above for PK. FrCx, PtCx, and hippocampi (Hip) were collected from all mice for SirT1 and sAPPα level determination by AlphaLISA. Protein concentration was determined using a Bradford protein assay. Brain and plasma levels of A03 were determined at IAS.
as §2

Each structure is given as a SMILES string. Where two headings read alike, the source gives them in different places.

Regarding `CC(N)C(=O)OC(C)(C)Cc1ccc(Cl)cc1` (centres unmarked) [A03, alaproclate], the “SirT2 (normalized to protein)” value in data set [1] is listed as “not significantly altered”. For the same compound, the Tmax in data set [2] (mouse, brain, n = 1 per time point) was found to be 1 h; in data set [3] (mouse, brain, sc, mice, SQ 10 mg/kg, n = 1), 2 h. Further, the area under the curve (AUC) in data set [2] (mouse, plasma, 1-8 hours) was found to be 266 ng·h/mL; in data set [3] (mouse, plasma, subcutaneous, mice, SQ 10 mg/kg) it was 1520 ng·h/mL. For the same compound, in data set [2] (1-8 hours), the AUC brain turned out to be 1336 ng·h/g. Also, the “factor by which brain levels after SQ exceed those after oral delivery” value in data set [3] (10 mg/Kg SQ vs 10 mg/Kg oral) is on record as 4 to 5. Further, the AUC plasma in data set [3] (mice, SQ 10 mg/kg, unit as printed in Fig. 4d legend) amounted to 1520 ng·h/mL. Besides, the Cmax is about 2600 ng/g in data set [3] (mouse, brain, sc, mice, SQ 10 mg/kg, n = 1, read-out: Cmax in brain) and about 10 µM in data set [3] (mouse, brain, subcutaneous, mice, SQ 10 mg/Kg, read-out: Cmax in brain as molar concentration). For the same compound, the “Aβ1-42 in the Hip” value in data set [4] is given as “lower than E4FAD Veh, but not significantly so”. Also, in data set [4], the “sAPPα in the Hip” value is given as “only slightly higher”. Also, in data set [4], the “sAPPβ in the Hip” value is “not changed”. Also, the “Exploration time in NOR” value in the data set with E4FAD mice is listed as “similar”. Moreover, in data set [5] (25-day study, oral 40 mg/kg/day, n = 12), the “Brain level 2 hours after the last dose” value is given as “above 2000 n/g”. The concentration at 2 h in data set [5] (E4FAD, mouse, brain, 56-day study, oral 40 mg/kg/day, n = 16, read-out: Brain level 2 hours after the last dose) was about 700 ng/g. Moreover, the “Brain levels 2 hours after the last dose, E1 vs A03” value in data set [5] (pilot study, SQ 10 mg/kg/day, 28 days, n = 8) is “slightly higher”.

For orientation: Tmax means the time at which the peak concentration occurs. One may read the AUC as the area under the concentration-time curve, a measure of exposure. A low value points to less exposure.
